Laboratory results from ChEMBL document CHEMBL4613217, “Synthesis, anti-plasmodial and cytotoxic evaluation of 1H-1,2,3-triazole/acyl hydrazide integrated tetrahydro-β-carboline-4-aminoquinoline conjugates” (Bioorg Med Chem Lett, 2020).

Legend:
Plasmodium falciparum = assay: Antiplasmodial activity against chloroquine-resistant Plasmodium falciparum W2; type: functional, organism-based
[1] = Selectivity Index, ratio of IC50 for African green monkey Vero cells to IC50 for chloroquine-resistant Plasmodium falciparum W2; type: toxicity; conditions: read-out: Ratio IC50
Vero = assay: Cytotoxicity against African green monkey Vero cells assessed as reduction in cell viability; type: cell-based; conditions: Chlorocebus sabaeus

| Structure (SMILES) | IC50 (Plasmodium falciparum) [µM] | selectivity ratio [1] | IC50 (Vero) [µM] |
| --- | --- | --- | --- |
| C[C@@H]1NC(C(=O)NNC(=O)CCNc2ccnc3cc(Cl)ccc23)Cc2c1[nH]c1ccccc21 (some centres not stated) | 2 |  |  |
| C#CCN1C(C(=O)OCC)Cc2c([nH]c3ccccc23)[C@H]1C (some centres not stated) | 9 |  |  |
| CCOC(=O)C1Cc2c([nH]c3ccccc23)[C@@H](C)N1Cc1cn(-c2ccnc3cc(Cl)ccc23)nn1 (some centres not stated) | 4.02 |  |  |
| C[C@@H]1NC(C(=O)NNC(=O)CNc2ccnc3cc(Cl)ccc23)Cc2c1[nH]c1ccccc21 (some centres not stated) | 5 |  |  |
| C[C@@H]1NC(C(=O)NNC(=O)CCCNc2ccnc3cc(Cl)ccc23)Cc2c1[nH]c1ccccc21 (some centres not stated) | 3.4 |  |  |
| O=C(CNc1ccnc2cc(Cl)ccc12)NNC(=O)C1Cc2c([nH]c3ccccc23)CN1 (configuration not stated) | 4.4 |  |  |
| C#CCN1Cc2[nH]c3ccccc3c2CC1C(=O)OCC (configuration not stated) | 4.3 |  |  |
| O=C(CCCNc1ccnc2cc(Cl)ccc12)NNC(=O)C1Cc2c([nH]c3ccccc23)CN1 (configuration not stated) | 3.1 |  |  |
| CCOC(=O)C1Cc2c([nH]c3ccccc23)CN1Cc1cn(-c2ccnc3cc(Cl)ccc23)nn1 (configuration not stated) | 9.28 |  |  |
| C[C@@H]1NC(C(=O)NNC(=O)CCCCCNc2ccnc3cc(Cl)ccc23)Cc2c1[nH]c1ccccc21 (some centres not stated) | 1.8 |  |  |
| O=C(CCNc1ccnc2cc(Cl)ccc12)NNC(=O)C1Cc2c([nH]c3ccccc23)CN1 (configuration not stated) | 3.1 |  |  |
| O=C(NNC(=O)C1Cc2c([nH]c3ccccc23)CN1)c1ccc(Nc2ccnc3cc(Cl)ccc23)cc1 (configuration not stated) | 0.61 | 156 | 95.1 |
| C[C@H]1NC(C(=O)NNC(=O)c2ccc(Nc3ccnc4cc(Cl)ccc34)cc2)Cc2c1[nH]c1ccccc21 (some centres not stated) | 1.21 | 84.9 | 103 |
| O=C(O)c1ccc(Nc2ccnc3cc(Cl)ccc23)cc1 | 8.6 |  |  |
| CCOC(=O)C1Cc2c([nH]c3ccccc23)CN1Cc1cn(CCCNc2ccnc3cc(Cl)ccc23)nn1 (configuration not stated) | 0.49 | 496 | 246 |
| CCOC(=O)C1Cc2c([nH]c3ccccc23)[C@@H](C)N1Cc1cn(CCNc2ccnc3cc(Cl)ccc23)nn1 (some centres not stated) | 0.93 |  |  |
| O=C(CCCCCNc1ccnc2cc(Cl)ccc12)NNC(=O)C1Cc2c([nH]c3ccccc23)CN1 (configuration not stated) | 2.2 |  |  |
| CCOC(=O)C1Cc2c([nH]c3ccccc23)CN1Cc1cn(CCNc2ccnc3cc(Cl)ccc23)nn1 (configuration not stated) | 0.86 | 312 | 268 |
| CCOC(=O)C1Cc2c([nH]c3ccccc23)[C@@H](C)N1Cc1cn(CCCNc2ccnc3cc(Cl)ccc23)nn1 (some centres not stated) | 1.37 |  |  |
